Data reported in patent US20130165428A1, “XANTHINE DERIVATIVES, THE PREPARATION THEREOF AND THEIR USE AS PHARMACEUTICAL COMPOSITIONS” (Boehringer Ingelheim Pharma GmbH & Co. KG, priority 2001, published 2013).
pIC50: −log10 of the molar value. Read-outs that look alike come from different tables or passages of the source.

How the values were obtained:
DPP-IV = target: T1, DPP-IV (Homo sapiens, UniProt P27487); assay: DPP-IV assay with extract of Caco-2 cells as DPP IV source; assay type: biochemical; settings: read-out: DPP IV inhibition IC50
T1 construct: an extract of the human colon carcinoma cell line Caco-2 is used as the DPP IV source; host or cells: Caco-2 (differentiated to induce DPP-IV expression), Nonidet-P40 solubilised extract
T1 sequence (P27487 whole entry): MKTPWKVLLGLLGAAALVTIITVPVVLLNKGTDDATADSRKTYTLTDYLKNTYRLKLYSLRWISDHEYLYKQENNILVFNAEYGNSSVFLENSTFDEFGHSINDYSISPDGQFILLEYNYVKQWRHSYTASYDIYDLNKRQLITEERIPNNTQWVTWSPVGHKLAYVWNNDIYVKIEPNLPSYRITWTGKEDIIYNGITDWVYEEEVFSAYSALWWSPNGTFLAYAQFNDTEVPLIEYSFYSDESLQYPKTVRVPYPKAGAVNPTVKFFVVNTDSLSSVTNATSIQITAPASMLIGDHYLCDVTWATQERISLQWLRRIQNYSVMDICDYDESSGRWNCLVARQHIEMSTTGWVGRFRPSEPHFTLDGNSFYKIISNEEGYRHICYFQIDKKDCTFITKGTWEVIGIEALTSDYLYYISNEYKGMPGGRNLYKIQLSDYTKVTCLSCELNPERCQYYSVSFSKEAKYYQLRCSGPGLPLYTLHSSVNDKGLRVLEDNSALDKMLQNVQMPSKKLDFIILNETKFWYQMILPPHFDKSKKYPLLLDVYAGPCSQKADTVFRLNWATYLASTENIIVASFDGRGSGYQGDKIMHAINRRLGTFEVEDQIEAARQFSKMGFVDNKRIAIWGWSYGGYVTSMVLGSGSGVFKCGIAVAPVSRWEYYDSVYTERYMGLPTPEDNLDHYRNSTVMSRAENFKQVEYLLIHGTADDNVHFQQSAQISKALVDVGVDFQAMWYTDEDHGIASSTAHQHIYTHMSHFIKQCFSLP
Protocol: This cell line was obtained from the American Type Culture Collection (ATCC HTB 37). […] The cell extract was obtained from cells solubilised in a buffer (10 mM Tris HCl, 0.15 M NaCl, 0.04 t.i.u. aprotinin, 0.5% Nonidet-P40, pH 8.0) by centrifugation at 35,000 g for 30 minutes at 4° C. (to remove cell debris).
The DPP-IV assay was carried out as follows:
50 μl of substrate solution (AFC; AFC is amido-4-trifluoromethylcoumarin), final concentration 100 μM, were placed in black microtitre plates. 20 μl of assay buffer (final concentrations 50 mM Tris HCl pH 7.8, 50 mM NaCl, 1% DMSO) was pipetted in. The reaction was started by the addition of 30 μl of solubilised Caco-2 protein (final concentration 0.14 μg of protein per well). The test substances under investigation were typically added prediluted to 20 μl, while the volume of assay buffer was then reduced accordingly. The reaction was carried out at ambient temperature, the incubation period was 60 minutes. […] Dummy values (corresponding to 0% activity) were obtained in mixtures with no Caco-2 protein (volume replaced by assay buffer), control values (corresponding to 100% activity) were obtained in mixtures without any added substance.

rats = assay: Tolerability after oral administration in rats; assay type: in vivo; settings: oral administration of 30 mg/kg
[1] = extract of human colon carcinoma cell line Caco-2 as DPP IV source, substrate AFC 100 μM, 60 minutes, ambient temperature

Compound	pIC50 (DPP-IV; [1])	further results
CC(C)=CCn1c(N[C@@H]2CCCC[C@@H]2N)nc2c1c(=O)n(C)c(=O)n2C (relative stereo) [1(6), 1,3-dimethyl-7-(3-methyl-2-buten-1-yl)-8-[(cis-2-amino-cyclohexyl)amino]-xanthine]	6.64	–
CCn1c(=O)n(C)c(=O)c2c1nc(N1CCCC(N)C1)n2Cc1ccccc1 (stereo not shown) [1(34), 1-methyl-3-ethyl-7-benzyl-8-(3-amino-piperidin-1-yl)-xanthine]	6.69	–
CC(C)=CCn1c(N(C)CCN)nc2c1c(=O)n(C)c(=O)n2C [1(35), 1,3-dimethyl-7-(3-methyl-2-buten-1-yl)-8-[N-(2-aminoethyl)-methylamino]-xanthine]	7.02	–
Cc1cccc(-n2c(N3CCCC(N)C3)nc3c2c(=O)n(C)c(=O)n3C)c1 (stereo not shown) [1(62), 1,3-dimethyl-7-(3-methyl-phenyl)-8-(3-amino-piperidin-1-yl)-xanthine]	6.78	–
Cn1c(=O)c2c(nc(N3CCCC(N)C3)n2Cc2ccccc2)n(CCc2ccccc2)c1=O (stereo not shown) [1(70), 1-methyl-3-(2-phenyl-ethyl)-7-benzyl-8-(3-amino-piperidin-1-yl)-xanthine]	7.49	–
CC(C)=CCn1c(N2CCCNCC2)nc2c1c(=O)n(CCc1ccccc1)c(=O)n2C [1(97), 1-(2-phenyl-ethyl)-3-methyl-7-(3-methyl-2-buten-1-yl)-8-(homopiperazin-1-yl)-xanthine]	6.67	–
Cn1c(=O)c2c(nc(N3CCCC(N)C3)n2Cc2ccccc2C#N)n(C)c1=O (stereo not shown) [1(121), 1,3-dimethyl-7-(2-cyano-benzyl)-8-(3-amino-piperidin-1-yl)-xanthine]	8.00	–
C#CCOc1cccc(C(=O)Cn2c(=O)c3c(nc(N4CCCC(N)C4)n3CC=C(C)C)n(C)c2=O)c1 (stereo not shown) [2(85), 1-{2-oxo-2-[3-(2-propyn-1-yloxy)-phenyl]-ethyl}-3-methyl-7-(3-methyl-2-buten-1-yl)-8-(3-amino-piperidin-1-yl)-xanthine]	7.77	–
CC(C)=CCn1c(N(C)CC(N)C(=O)N(C)C)nc2c1c(=O)n(C)c(=O)n2C (stereo not shown) [2(131), 1,3-dimethyl-7-(3-methyl-2-buten-1-yl)-8-[N-(2-amino-3-dimethylamino-3-oxo-propyl)-N-methyl-amino]-xanthine×trifluoroacetic acid]	–	pIC50 (DPP-IV): 6.90
Cn1c(=O)c2c(nc(N3CCCC(N)C3)n2Cc2ccccc2)n(C)c1=O (stereo not shown) [Example 1(2), 1,3-dimethyl-7-benzyl-8-(3-amino-piperidin-1-yl)-xanthine]	–	toxic side effects / tolerability (rats): no toxic side effects could be detected
CC(C)=CCn1c(N2CCCC(N)C2)nc2c1c(=O)n(CCc1ccccc1)c(=O)n2CC(=O)O (stereo not shown) [Example 6(5), 1-(2-phenyl-ethyl)-3-carboxymethyl-7-(3-methyl-2-buten-1-yl)-8-(3-amino-piperidin-1-yl)-xanthine]	–	melting point: 228 to 235 °C
Cn1c(=O)c2c(nc(N3CCCC(N)C3)n2Cc2ccccc2)n(CC(=O)O)c1=O (stereo not shown) [Example 6, 1-methyl-3-carboxymethyl-7-benzyl-8-(3-amino-piperidin-1-yl)-xanthine]	7.26	melting point: 212 to 215 °C

Continued, in another order:

pIC50 (DPP-IV; [1])	Compound	further results
6.20	CC(C)=CCn1c(N2CCCC(N)C2)nc2c1c(=O)[nH]c(=O)n2C (stereo not shown) [1(15), 3-methyl-7-(3-methyl-2-buten-1-yl)-8-(3-amino-piperidin-1-yl)-xanthine]	–
7.11	CCn1c(=O)c2c(nc(N3CCCC(N)C3)n2CC=C(C)C)n(C)c1=O (stereo not shown) [1(16), 1-ethyl-3-methyl-7-(3-methyl-2-buten-1-yl)-8-(3-amino-piperidin-1-yl)-xanthine]	–
5.56	CC(C)=CCn1c(N2CCCC(N)C2)nc2c1c(=O)n(C(C)C)c(=O)n2C (stereo not shown) [1(19), 1-(2-propyl)-3-methyl-7-(3-methyl-2-buten-1-yl)-8-(3-amino-piperidin-1-yl)-xanthine]	–
6.91	C=CCn1c(=O)c2c(nc(N3CCCC(N)C3)n2CC=C(C)C)n(C)c1=O (stereo not shown) [1(21), 1-(2-propen-1-yl)-3-methyl-7-(3-methyl-2-buten-1-yl)-8-(3-amino-piperidin-1-yl)-xanthine]	–
6.90	CC(C)=CCn1c(N2CCCC(N)C2)nc2c1c(=O)n(CCO)c(=O)n2C (stereo not shown) [1(27), 1-(2-hydroxyethyl)-3-methyl-7-(3-methyl-2-buten-1-yl)-8-(3-amino-piperidin-1-yl)-xanthine]	–
6.78	COCCn1c(=O)c2c(nc(N3CCCC(N)C3)n2CC=C(C)C)n(C)c1=O (stereo not shown) [1(28), 1-(2-methoxyethyl)-3-methyl-7-(3-methyl-2-buten-1-yl)-8-(3-amino-piperidin-1-yl)-xanthine]	–
5.69	CC(C)=CCn1c(N2CCCC(N)C2)nc2c1c(=O)n(CCN(C)C)c(=O)n2C (stereo not shown) [1(30), 1-[2-(dimethylamino)ethyl]-3-methyl-7-(3-methyl-2-buten-1-yl)-8-(3-amino-piperidin-1-yl)-xanthine]	–
6.85	CC(C)=CCn1c(N2CCCC(N)C2)nc2c1c(=O)n(CCc1cccc(C)c1)c(=O)n2C (stereo not shown) [1(55), 1-[2-(3-methyl-phenyl)-ethyl]-3-methyl-7-(3-methyl-2-buten-1-yl)-8-(3-amino-piperidin-1-yl)-xanthine]	–
7.24	CC(C)=CCn1c(N2CCCC(N)C2)nc2c1c(=O)n(CCc1ccccn1)c(=O)n2C (stereo not shown) [1(60), 1-[2-(pyridin-2-yl)-ethyl]-3-methyl-7-(3-methyl-2-buten-1-yl)-8-(3-amino-piperidin-1-yl)-xanthine]	melting point: 117 to 120 °C
7.18	CC(C)=CCn1c(N2CCC[C@H](N)C2)nc2c1c(=O)n(CCc1cccc(O)c1)c(=O)n2C [2(22), 1-[2-(3-hydroxy-phenyl)-ethyl]-3-methyl-7-(3-methyl-2-buten-1-yl)-8-((S)-3-amino-piperidin-1-yl)-xanthine]	melting point: 168 to 170 °C
7.19	CC(C)=CCn1c(N2CCCC(N)C2)nc2c1c(=O)n(C)c(=O)n2CC(=O)c1ccccc1 (stereo not shown) [2(56), 1-methyl-3-(2-phenyl-2-oxo-ethyl)-7-(3-methyl-2-buten-1-yl)-8-(3-amino-piperidin-1-yl)-xanthine]	–
7.66	CC(C)=CCn1c(N2CCCC(N)C2)nc2c1c(=O)n(C)c(=O)n2CCc1ccc(F)cc1 (stereo not shown) [2(77), 1-methyl-3-[2-(4-fluoro-phenyl)-ethyl]-7-(3-methyl-2-buten-1-yl)-8-(3-amino-piperidin-1-yl)-xanthine]	–
8.22	CC(C)=CCn1c(N2CCCC(N)C2)nc2c1c(=O)n(CC(=O)c1cccc(OCC#N)c1)c(=O)n2C (stereo not shown) [2(88), 1-[2-(3-cyanomethoxy-phenyl)-2-oxo-ethyl]-3-methyl-7-(3-methyl-2-buten-1-yl)-8-(3-amino-piperidin-1-yl)-xanthine]	–
7.70	CC(C)=CCn1c(N2CCCC(N)C2)nc2c1c(=O)n(Cc1ccccn1)c(=O)n2C (stereo not shown) [2(113), 1-[(pyridin-2-yl)methyl]-3-methyl-7-(3-methyl-2-buten-1-yl)-8-(3-amino-piperidin-1-yl)-xanthine]	–
7.66	CC(C)=CCn1c(N2CCCC(N)C2)nc2c1c(=O)n(Cc1cccc3ccccc13)c(=O)n2C (stereo not shown) [2(127), 1-[(1-naphthyl)methyl]-3-methyl-7-(3-methyl-2-buten-1-yl)-8-(3-amino-piperidin-1-yl)-xanthine]	–
8.52	CC(C)=CCn1c(N2CCCC(N)C2)nc2c1c(=O)n(CC(=O)c1ccccc1N)c(=O)n2C (stereo not shown) [2(136), 1-[2-(2-amino-phenyl)-2-oxo-ethyl]-3-methyl-7-(3-methyl-2-buten-1-yl)-8-(3-amino-piperidin-1-yl)-xanthine]	–
